Test results: US9981968B2, “Substituted pyrrolo[2,3-d]pyrimidines for the treatment of cancer and proliferative disorders” (Northwestern University, priority 2013, dated 2018)

Columns and labels:
[1] = system: HL-60(TB); assay: SRB growth assay, HL-60(TB); assay type: cell-based; details: Homo sapiens, HL-60(TB) (Leukemia), 48 hours, read-out: Percent viability
Description: (§1) Tested cell lines included, Leukemia: CCRF-CEM, HL-60(TB), MOLT-4, RPMI-8226 and SR; Non-Small Cell Lung: A549/ATCC, EKVX, HOP-62, HOP-92, NCI-H226, NCI-H23, NCI-H322M, NCI-H460 and NCI-H522; Colon: COLO 205, HCC-2998, HCT-116, HCT-15. HT29, KM12 and SW-620; CNS: SF-268, SF-295, SF-539, SNB-19, SNB-75 and U251; Melanoma: LOX IMVI, MALME-3M, M14, MDA-MB-435, SK-MEL-2, SK-MEL-28, SK-MEL-5, UACC-257 and UACC-62; Ovarian: IGR-OV1, OVCAR-3, OVCAR-4, OVCAR-5, OVCAR-8. NCI/ADR-RES and SK-OV-3; Renal: 786-0, A498, ACHN, CAKI-1, RXF 393, SN12C, TK-10 and UO-31; Prostate: DU-145 and PC-3; and Breast: MCF7, MDA-MB-231/ATCC, MDA-MB-468, HS 578T, BT-549 and T-47D.
(§2) The cells were cultured in RPMI1640 media supplemented with 10% Fetal Bovine Serum (FBS), 2 mM glutamine and with 5% CO2 and 37° C. For experiment, 5% of FBS and 50 ug/mL of gentamycin were used. Test articles were 10 μM of NUCL 381-3 or 10 μM NUCL 383-3. The positive control was 10 μM of doxorubicin.
(§3) Cells were plated in 96 well plates. The cells were plated in triplicate. Cells were plated at the densities based on NCI recommendation. Time zero cells (Tz) were fixed the following day with 50% or 80% ice cold Trichloracetic acid (TCA) and washed 5× with water. At 48 hours post addition of treatments, all remaining plates were fixed in 80% ice cold Trichloracetic acid (TCA) and washed 5× with water. After drying, one hundred microliters of 0.4% Sulphorhodamine B (SRB) in 1% acetic acid was added to each plate including the Tzero plate and incubated for 10 minutes at room temperature. After 5 additional washes with 1% acetic acid, plates were allowed to dry. One hundred microliters of Trizma base was added to each well and plates were read at 515 nm.
(§4) Percent of growth was calculated by the following formulas: [Ti/C]×100, where: Tz=absorbance readings for wells at time zero without treatment; C=absorbance readings of untreated cells (without treatment); and Ti=absorbance reading of wells with treatment.

[2] = system: A549; assay: SRB growth assay, A549; assay type: cell-based; details: Homo sapiens, A549 (Non-Small Cell Lung), 48 hours, read-out: Percent viability
Description: as §1, §2, §3, §4

[3] = system: HOP-92; assay: SRB growth assay, HOP-92; assay type: cell-based; details: Homo sapiens, HOP-92 (Non-Small Cell Lung), 48 hours, read-out: Percent viability
Description: as §1, §2, §3, §4

[4] = system: NCI-H460; assay: SRB growth assay, NCI-H460; assay type: cell-based; details: Homo sapiens, NCI-H460 (Non-Small Cell Lung), 48 hours, read-out: Percent viability
Description: as §1, §2, §3, §4

[5] = system: SK-MEL-28; assay: SRB growth assay, SK-MEL-28; assay type: cell-based; details: Homo sapiens, SK-MEL-28 (Melanoma), 48 hours, read-out: Percent viability
Description: as §1, §2, §3, §4

[6] = system: SK-MEL-5; assay: SRB growth assay, SK-MEL-5; assay type: cell-based; details: Homo sapiens, SK-MEL-5 (Melanoma), 48 hours, read-out: Percent viability
Description: as §1, §2, §3, §4

[7] = system: OVCAR-3; assay: SRB growth assay, OVCAR-3; assay type: cell-based; details: Homo sapiens, OVCAR-3 (Ovarian), 48 hours, read-out: Percent viability
Description: as §1, §2, §3, §4

[8] = system: CAKI-1; assay: SRB growth assay, CAKI-1; assay type: cell-based; details: Homo sapiens, CAKI-1 (Renal), 48 hours, read-out: Percent viability
Description: as §1, §2, §3, §4

[9] = system: SN12C; assay: SRB growth assay, SN12C; assay type: cell-based; details: Homo sapiens, SN12C (Renal), 48 hours, read-out: Percent viability
Description: as §1, §2, §3, §4

[10] = system: TK-10; assay: SRB growth assay, TK-10; assay type: cell-based; details: Homo sapiens, TK-10 (Renal), 48 hours, read-out: Percent viability
Description: as §1, §2, §3, §4

[11] = system: UO-31; assay: SRB growth assay, UO-31; assay type: cell-based; details: Homo sapiens, UO-31 (Renal), 48 hours, read-out: Percent viability
Description: as §1, §2, §3, §4

[12] = system: PC-3; assay: SRB growth assay, PC-3; assay type: cell-based; details: Homo sapiens, PC-3 (Prostate), 48 hours, read-out: Percent viability
Description: as §1, §2, §3, §4

[13] = system: DU-145; assay: SRB growth assay, DU-145; assay type: cell-based; details: Homo sapiens, DU-145 (Prostate), 48 hours, read-out: Percent viability
Description: as §1, §2, §3, §4

[14] = system: MCF7; assay: SRB growth assay, MCF7; assay type: cell-based; details: Homo sapiens, MCF7 (Breast), 48 hours, read-out: Percent viability
Description: as §1, §2, §3, §4

[15] = system: BT-549; assay: SRB growth assay, BT-549; assay type: cell-based; details: Homo sapiens, BT-549 (Breast), 48 hours, read-out: Percent viability
Description: as §1, §2, §3, §4

[16] = system: NCI-60 Cell Lines; assay: Inhibiting growth of NCI-60 cell lines (panel summary); assay type: cell-based, human; details: 10 μM, compared to doxorubicin
Experimental: NUCL 381-3 and NUCL 383-3 (referred to as “NUCC-00381” and “NUCC-000383” above, respectively) were administered to a variety of cancer cell lines in order to test their ability to inhibit cell growth as compared to doxorubicin.
as §1
The cells were cultured in RPMI1640 media supplemented with 10% Fetal Bovine Serum (FBS), 2 mM glutamine and with 5% CO2 and 37° C. […]
Cells were plated in 96 well plates. […] One hundred microliters of Trizma base was added to each well and plates were read at 515 nm.
as §4

[17] = system: acute leukemia cell lines (THP-1, K562, Kasumi-1, and U937); assay: Inhibition of viability of acute leukemia cell lines; assay type: cell-based, human; details: THP-1, K562, Kasumi-1, U937
Experimental: Compounds 381, 383, 409 (as test compounds) and Compound 501 (as a negative control) were administered to a variety of acute leukemia cell lines (THP-1. K562, Kasumi-1, and U937) in order to test their ability to inhibit cell growth as compared to 8-amino adenosine (8NH2-Ado) and 8-chloro adenosine (8Cl-Ado) (as positive controls) as in the previous Examples.

Row | SMILES | viability at 10 µM [1] [%] | viability at 10 µM [2] [%] | viability at 10 µM [3] [%] | viability at 10 µM [4] [%] | viability at 10 µM [5] [%] | viability at 10 µM [6] [%] | viability at 10 µM [7] [%] | viability at 10 µM [8] [%] | viability at 10 µM [9] [%] | viability at 10 µM [10] [%] | viability at 10 µM [11] [%] | viability at 10 µM [12] [%] | viability at 10 µM [13] [%] | viability at 10 µM [14] [%] | viability at 10 µM [15] [%] | cell viability across NCI-60 cell lines [16] | cell viability ([17]; FIGS. 11-14) | inhibitory activity relative to positive controls ([17]; versus 8NH2-Ado and 8Cl-Ado)
1 | CS(=O)(=O)N1CCC(Cn2cc(C(F)(F)F)c3c(Cl)ncnc32)CC1 [NUCC-0000383] | 22.5 | 100 | 97.6 | 69.1 | 4.54 | 6.11 | 95.5 | 46.8 | 25.8 | 73.9 | 3.37 | 3.55 | 11.2 | 108 | 79.2 |  |  | 
2 | FC(F)(F)c1cn(CC2CCNCC2)c2ncnc(Cl)c12 [NUCC-0000381] | 25.8 | 28.2 | 56.8 | 26.4 | 93.3 | 100 | 48.7 | 86.8 | 42.1 | 88.5 | 19.7 | 8.43 | 29.8 | 89.8 | 103 | reduce cell viability for a number of cell lines | reduce cell viability significantly | inhibitory activities approaching those of 8NH2-Ado and 8Cl-Ado
3 | COc1cccc2c1C(=O)c1c(O)c3c(c(O)c1C2=O)C[C@@](O)(C(=O)CO)C[C@@H]3O[C@H]1C[C@H](N)[C@H](O)[C@H](C)O1 [Doxorubicin, reference compound] | 25 | 86.8 | 98.5 | 35 | 29.7 | 7.01 | 16.8 | 0 | 45.4 | 35.9 | 28.2 | 50 | 72.5 | 69.1 | 62.5 |  |  | 
